By IC50 is commonly meant the point on the concentration scale where inhibition reaches its midpoint.

SMILES strings stand for the structures.

Consider one compound from ChEMBL document CHEMBL5728176, “Substituted pyrimidines for treating bacterial infections” (2020).

This assay in a line: nhibition Assay against Klebsiella pneumoniae LpxC: LpxC inhibition assays were performed using liquid chromatography with tandem mass spectrometry. Assays were performed, in duplicate, in opaque, 96-well microplates in a total assay volume of 50 μL. The incubation mixture contained: LpxC (0.2 nM Kpn), 0.8 μM UDP-3-O—[(R)-3-hydroxymyristoyl]-N-acetyl-glucosamine, 40 mM Bis-Tris/HCl buffer (pH 5.9), 5 mM sodium phosphate buffer (NaH2PO4/Na2HPO4, pH 7.0), 1 mM DTT, 0.1% (w/v) fatty-acid free BSA, 10% DMSO (v/v, with or without compound). The reactions were incubated at 22° C. for 60 minutes (with mild shaking), then terminated by the addition of 25 μL 0.25 N HCl. Samples were analyzed using a LC-MS system to measure native LpxC substrate and reaction product. IC50 analysis was done using GeneData Screener and a four parameter variable slope normalized to controls. Test compounds were prepared as 8-point dose-response curves (factor dilution 2) in triplicate, starting at 1 μM final concentration. Each assay plate included 6 wells used for the Z′ factor calculation, 3 as a positive control for the assay and 3 as a negative control. The robustness was calculated as the median Z′ factor for 5 plates. Chir-90, a well-known inhibitor of LpxC activity was used as inhibitor control standard.

On to `C[C@@H](O)[C@H](NC(=O)c1ccc(C#Cc2ccc(CN3CCOCC3)cc2)cc1)C(=O)NO`, for which the IC50 was less than 1 nM.
